Experimental data published in article PMC10113378, “Synthesis, in vitro α-glucosidase inhibitory activities, and molecular dynamic simulations of novel 4-hydroxyquinolinone-hydrazones as potential antidiabetic agents” (Scientific Reports, 2023).
Read-outs that look alike come from different tables or passages of the source.

Assays:
α-glucosidase [1] = conditions: cited from earlier work
[2] = biological target: T1, α-glucosidase enzyme (EC3.2.1.20, Saccharomyces cerevisiae) (Saccharomyces cerevisiae, UniProt P53341); test: biochemical; conditions: mean ± SD; substrate p-nitrophenyl glucopyranoside 4 mM, pH 6.8, 37 °C; read-out: α-Glucosidase inhibition IC50
T1 construct: purchased Sigma-Aldrich
Protocol: α-glucosidase enzyme (EC3.2.1.20, Saccharomyces cerevisiae, 20 U/mg) and substrate (p-nitrophenyl glucopyranoside) were purchased from Sigma-Aldrich. 1 mg of α-glucosidase was dissolved in potassium phosphate buffer (50 mM, pH = 6.8) to obtain the initial activity of 1 U/ml. Then, 20 µl of this enzyme solution was incubated with 135 µl of potassium phosphate buffer and 20 µl of test compound at various concentrations in DMSO. […] The percentage of inhibition for each entry was calculated by using the following formula: %Inhibition=Abscontrol-Abssample/Abscontrol×100.
IC50 values were obtained from the nonlinear regression curve using the Logit method[28],[29].

α-glucosidase [3] = biological target: T2, α-glucosidase (Saccharomyces cerevisiae, UniProt P53341); test: Enzyme kinetic studies (Lineweaver–Burk plot, secondary plot); format: biochemical; conditions: for mode of inhibition: Lineweaver–Burk plot, Km increased, Vmax unchanged; for Ki: from plot of Km versus inhibitor concentration, read-out: inhibition constant, Ki
T2 construct: purchased Sigma-Aldrich
Protocol: A Lineweaver–Burk plot was generated to identify the type of inhibition and the Michaelis–Menten constant (Km) value was determined from the plot between the reciprocal of the substrate concentration (1/[S]) and reciprocal of enzyme rate (1/V) over various inhibitors concentrations[30],[31].

T1 sequence (P53341 whole entry): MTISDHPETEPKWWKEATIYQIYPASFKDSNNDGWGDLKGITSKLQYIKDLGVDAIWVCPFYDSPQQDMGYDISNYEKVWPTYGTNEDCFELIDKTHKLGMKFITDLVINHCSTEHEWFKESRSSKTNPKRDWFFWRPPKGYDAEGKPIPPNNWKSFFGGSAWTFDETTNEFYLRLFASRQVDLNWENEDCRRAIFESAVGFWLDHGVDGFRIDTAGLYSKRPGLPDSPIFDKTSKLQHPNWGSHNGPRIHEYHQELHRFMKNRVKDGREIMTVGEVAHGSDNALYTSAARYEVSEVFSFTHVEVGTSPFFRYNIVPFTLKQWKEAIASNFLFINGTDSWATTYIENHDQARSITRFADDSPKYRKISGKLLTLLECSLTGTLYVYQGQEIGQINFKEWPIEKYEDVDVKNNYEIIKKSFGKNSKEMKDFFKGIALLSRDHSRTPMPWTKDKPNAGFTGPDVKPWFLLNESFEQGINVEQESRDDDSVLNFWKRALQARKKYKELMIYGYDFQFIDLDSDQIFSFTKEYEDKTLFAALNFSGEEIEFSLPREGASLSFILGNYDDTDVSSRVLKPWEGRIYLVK
T2 sequence (P53341 whole entry): as above

| Compound | IC50 [2] | melting point | also measured |
| --- | --- | --- | --- |
| O=C(N/N=C/c1ccc(Cl)cc1)c1ccc(-c2nc3ccccc3s2)cc1 [G] | – | – | IC50 (α-glucosidase [1]; benzothiazole-bearing benzohydrazide, read-out: IC50): 5.31 ± 0.03 µM |
| O=C(N/N=C/c1cc(Br)ccc1O)c1c(O)c2ccccc2[nH]c1=O [Compound 6l, (E)-N'-(5-bromo-2-hydroxybenzylidene)-4-hydroxy-2-oxo-1,2-dihydroquinoline-3-carbohydrazide] | 94.2 ± 1 µM | 171 to 173 °C | mode of inhibition (α-glucosidase [3]): competitive inhibition; Ki (α-glucosidase [3]): 92 µM |
| O=C(N/N=C/c1c(O)cc(O)cc1O)c1ccc(-c2cc(=O)c3ccccc3o2)cc1 [F] | – | – | IC50 (α-glucosidase [1]; flavone-hydrazone, read-out: IC50): 15.4 ± 0.22 µM |
| O=C(N/N=C/c1cccc(F)c1)c1ccc2nc(-c3ccccc3)c(-c3ccccc3)nc2c1 [H] | – | – | mode of inhibition (α-glucosidase [1]): competitive mode of inhibition; IC50 (α-glucosidase [1]; read-out: IC50): 111 µM |
| Oc1ccc2ccccc2n1 [A, 2-hydroxyquinoline] | – | – | IC50 (α-glucosidase [1]; Fig. 1): 64.4 ± 1.7 µg/mL |
| O=C(N/N=C/c1cc([N+](=O)[O-])ccc1O)c1c(O)c2ccccc2[nH]c1=O [Compound 6m, (E)-4-hydroxy-N'-(2-hydroxy-5-nitrobenzylidene)-2-oxo-1,2-dihydroquinoline-3-carbohydrazide] | 93.5 ± 0.6 µM | 198 to 200 °C | mode of inhibition (α-glucosidase [3]): competitive inhibition; Ki (α-glucosidase [3]): 93 µM |
| O=C(Cc1ccc(Cl)cc1Cl)N/N=C1/C(=O)Nc2cc(Br)ccc21 [E] | – | – | IC50 (α-glucosidase [1]; isatin-hydrazone structure, recent research (reference number not given), read-out: IC50): 2.2 ± 0.25 µM |
| C[C@H]1O[C@H](O[C@H]2[C@H](O)[C@@H](O)[C@@H](O[C@H]3[C@H](O)[C@@H](O)C(O)O[C@@H]3CO)O[C@@H]2CO)[C@H](O)[C@@H](O)[C@@H]1N[C@H]1C=C(CO)[C@@H](O)[C@H](O)[C@H]1O (some centres unmarked) [Acarbose] | – | – | α-glucosidase inhibition (α-glucosidase [1]; at 128 μg/mL): 75.55% |
| O=C(N/N=C/c1ccc(O)c(O)c1)c1ccc2ncccc2c1 [D] | – | – | IC50 (α-glucosidase [1]; quinoline derivatives, read-out: IC50): 6.2 ± 0.3 µM |
| O=C(N/N=C/c1ccc(O)c(O)c1)c1ccc(-c2nnc(-c3ccc4ncccc4c3)o2)cc1 [C] | – | – | IC50 (α-glucosidase [1]; quinoline–oxadiazole Schiff bases, read-out: IC50): 2.6 ± 0.01 µM |

Further lines, with some results ahead:

| IC50 [2] | melting point | Compound | also measured |
| --- | --- | --- | --- |
| 436.7 ± 1 µM | 187 to 189 °C | O=C(N/N=C/c1cccc(Br)c1)c1c(O)c2ccccc2[nH]c1=O [Compound 6e, (E)-N'-(3-bromobenzylidene)-4-hydroxy-2-oxo-1,2-dihydroquinoline-3-carbohydrazide] | – |
| 187.8 ± 0.3 µM | 185 to 187 °C | O=C(N/N=C/c1ccc(O)cc1O)c1c(O)c2ccccc2[nH]c1=O [Compound 6n, (E)-N'-(2,4-dihydroxybenzylidene)-4-hydroxy-2-oxo-1,2-dihydroquinoline-3-carbohydrazide] | – |
| 120.5 ± 0.8 µM | 208 to 210 °C | O=C(N/N=C/c1ccc([N+](=O)[O-])cc1)c1c(O)c2ccccc2[nH]c1=O [Compound 6g, (E)-4-hydroxy-N'-(4-nitrobenzylidene)-2-oxo-1,2-dihydroquinoline-3-carbohydrazide] | – |
| 154.8 ± 0.1 µM | 177 to 179 °C | O=C(N/N=C/c1ccccc1O)c1c(O)c2ccccc2[nH]c1=O [Compound 6j, (E)-4-hydroxy-N'-(2-hydroxybenzylidene)-2-oxo-1,2-dihydroquinoline-3-carbohydrazide] | – |
| 136.7 ± 0.5 µM | 180 to 182 °C | Cc1ccc(/C=N/NC(=O)c2c(O)c3ccccc3[nH]c2=O)cc1 [Compound 6h, (E)-4-hydroxy-N'-(4-methylbenzylidene)-2-oxo-1,2-dihydroquinoline-3-carbohydrazide] | – |
| 131.6 ± 0.3 µM | 194 to 196 °C | O=C(N/N=C/c1ccc(Cl)cc1)c1c(O)c2ccccc2[nH]c1=O [Compound 6d, (E)-N'-(4-chlorobenzylidene)-4-hydroxy-2-oxo-1,2-dihydroquinoline-3-carbohydrazide] | – |
| 195.3 ± 1.2 µM | – | O=C(N/N=C/c1ccc(F)cc1)c1c(O)nc2ccccc2c1O [Compound 6c, (E)-N'-(4-fluorobenzylidene)-4-hydroxy-2-oxo-1,2-dihydroquinoline-3-carbohydrazide] | – |
| 382.6 ± 0.9 µM | – | O=C(N/N=C/c1ccccc1)c1c(O)nc2ccccc2c1O [Compound 6a, (E)-N'-benzylidene-4-hydroxy-2-oxo-1,2-dihydroquinoline-3-carbohydrazide] | – |
| 259 ± 1 µM | 189 to 191 °C | COc1ccc(/C=N/NC(=O)c2c(O)c3ccccc3[nH]c2=O)cc1 [Compound 6i, (E)-4-hydroxy-N'-(4-methoxybenzylidene)-2-oxo-1,2-dihydroquinoline-3-carbohydrazide] | – |
| 520.2 ± 1.5 µM | 179 to 181 °C | O=C(N/N=C/c1ccc(Br)cc1)c1c(O)c2ccccc2[nH]c1=O [Compound 6f, (E)-N'-(4-bromobenzylidene)-4-hydroxy-2-oxo-1,2-dihydroquinoline-3-carbohydrazide] | – |
| 247 ± 1.1 µM | 190 to 192 °C | O=C(N/N=C/c1ccccc1F)c1c(O)c2ccccc2[nH]c1=O [Compound 6b, (E)-N'-(2-fluorobenzylidene)-4-hydroxy-2-oxo-1,2-dihydroquinoline-3-carbohydrazide] | – |
| 196.3 ± 0.7 µM | 186 to 188 °C | O=C(N/N=C/c1cccc(O)c1)c1c(O)c2ccccc2[nH]c1=O [Compound 6k, (E)-4-hydroxy-N'-(3-hydroxybenzylidene)-2-oxo-1,2-dihydroquinoline-3-carbohydrazide] | – |
| 575.6 ± 0.4 µM | 193 to 195 °C | COc1cc(/C=N/NC(=O)c2c(O)c3ccccc3[nH]c2=O)ccc1O [Compound 6o, (E)-4-hydroxy-N'-(4-hydroxy-3-methoxybenzylidene)-2-oxo-1,2-dihydroquinoline-3-carbohydrazide] | – |
